Experimental data from the NIST ThermoML archive (doi:10.1021/je060257y).
Numbers after ± are expanded uncertainties.

Assay: molar heat capacity at constant pressure
Settings: 101.33 kPa, Crystal

Structure (SMILES)	molar heat capacity at constant pressure (298.15 K)	molar heat capacity at constant pressure (303.15 K)	molar heat capacity at constant pressure (308.15 K)	molar heat capacity at constant pressure (313.15 K)	molar heat capacity at constant pressure (318.15 K)	molar heat capacity at constant pressure (323.15 K)	molar heat capacity at constant pressure (328.15 K)	molar heat capacity at constant pressure (333.15 K)	molar heat capacity at constant pressure (338.15 K)	molar heat capacity at constant pressure (343.15 K)
CCc1cc(=O)n(C)c(=O)n1C [2,4(1H,3H)-pyrimidinedione, 6-ethyl-1,3-dimethyl-]	241.8 ± 9.6 J/K/mol	243.4 ± 9.7 J/K/mol	245.3 ± 9.7 J/K/mol	246.3 ± 9.7 J/K/mol	248.3 ± 9.8 J/K/mol	259.6 ± 10 J/K/mol				
O=c1cc[nH]c(=O)[nH]1 [2,4(1H,3H)-pyrimidinedione]	131.8 ± 4.7 J/K/mol	135.5 ± 4.7 J/K/mol	140.9 ± 4.9 J/K/mol	143 ± 4.9 J/K/mol	146.1 ± 5 J/K/mol	149 ± 5.1 J/K/mol	151.8 ± 5.1 J/K/mol	154.3 ± 5.2 J/K/mol	156.8 ± 5.2 J/K/mol	157.4 ± 5.3 J/K/mol
Cc1nc(O)nc(O)c1C [2,4-dihydroxy-5,6-dimethylpyrimidine]	191.1 ± 5.9 J/K/mol	198.3 ± 6.1 J/K/mol	203.2 ± 6.3 J/K/mol	208 ± 6.4 J/K/mol	212 ± 6.6 J/K/mol	215.6 ± 6.7 J/K/mol	219.1 ± 6.8 J/K/mol	223.3 ± 6.9 J/K/mol	229.3 ± 7.1 J/K/mol	234.1 ± 7.3 J/K/mol
Cc1cc(O)nc(O)n1 [2,4-dihydroxy-6-methylpyrimidine]	162.5 ± 5 J/K/mol	167.2 ± 5.2 J/K/mol	170.2 ± 5.3 J/K/mol	172.2 ± 5.3 J/K/mol	176.9 ± 5.5 J/K/mol	181.4 ± 5.6 J/K/mol	183 ± 5.7 J/K/mol	187.3 ± 5.8 J/K/mol	190.4 ± 5.9 J/K/mol	193 ± 6 J/K/mol
O=[N+]([O-])c1cnc(O)nc1O [2,4-pyrimidinedione, 5-nitro-]	167.2 ± 5.2 J/K/mol	167.9 ± 5.2 J/K/mol	169.9 ± 5.3 J/K/mol	169.9 ± 5.3 J/K/mol	171.1 ± 5.3 J/K/mol	171.8 ± 5.3 J/K/mol	173 ± 5.4 J/K/mol	173.1 ± 5.4 J/K/mol	174.5 ± 5.4 J/K/mol	174.5 ± 5.4 J/K/mol
Cc1cc(=O)n(C)c(=O)[nH]1 [3,6-dimethyluracil]	187.4 ± 5.9 J/K/mol	193.1 ± 6 J/K/mol	191.4 ± 6 J/K/mol	193.5 ± 6.1 J/K/mol	198.4 ± 6.2 J/K/mol	200.3 ± 6.2 J/K/mol	202.4 ± 6.3 J/K/mol	203.8 ± 6.3 J/K/mol	206 ± 6.4 J/K/mol	209 ± 6.5 J/K/mol
O=c1[nH]cc(C(F)(F)F)c(=O)[nH]1 [5-(trifluoromethyl)uracil]	182.2 ± 5.6 J/K/mol	183.9 ± 5.7 J/K/mol	188.1 ± 5.8 J/K/mol	190.3 ± 5.9 J/K/mol	192.2 ± 6 J/K/mol	195.9 ± 6.1 J/K/mol	198.2 ± 6.1 J/K/mol	199.4 ± 6.2 J/K/mol	204.4 ± 6.3 J/K/mol	206.6 ± 6.4 J/K/mol

Continued, values first:

molar heat capacity at constant pressure (298.15 K)	molar heat capacity at constant pressure (303.15 K)	molar heat capacity at constant pressure (308.15 K)	molar heat capacity at constant pressure (313.15 K)	molar heat capacity at constant pressure (318.15 K)	molar heat capacity at constant pressure (323.15 K)	molar heat capacity at constant pressure (328.15 K)	molar heat capacity at constant pressure (333.15 K)	molar heat capacity at constant pressure (338.15 K)	molar heat capacity at constant pressure (343.15 K)	Structure (SMILES)
144.7 ± 4.5 J/K/mol	147.9 ± 4.6 J/K/mol	148.5 ± 4.6 J/K/mol	151 ± 4.7 J/K/mol	153.9 ± 4.8 J/K/mol	157.1 ± 4.9 J/K/mol	157.9 ± 4.9 J/K/mol	162 ± 5 J/K/mol	164.3 ± 5.1 J/K/mol	164.8 ± 5.1 J/K/mol	O=c1[nH]cc(Br)c(=O)[nH]1 [5-bromouracil]
136.7 ± 4.2 J/K/mol	137.9 ± 4.3 J/K/mol	142.1 ± 4.4 J/K/mol	142.9 ± 4.4 J/K/mol	146.1 ± 4.5 J/K/mol	147.2 ± 4.6 J/K/mol	151.2 ± 4.7 J/K/mol	152.9 ± 4.7 J/K/mol	154.9 ± 4.8 J/K/mol	157 ± 4.9 J/K/mol	Oc1ncc(Cl)c(O)n1 [5-chloro-2,4-pyrimidinedione]
138.3 ± 4.7 J/K/mol	139.1 ± 4.7 J/K/mol	140 ± 4.7 J/K/mol	140.9 ± 4.8 J/K/mol	142 ± 4.8 J/K/mol	143.6 ± 4.8 J/K/mol	145.5 ± 4.9 J/K/mol	147.9 ± 4.9 J/K/mol	150.6 ± 5 J/K/mol	153.8 ± 5.1 J/K/mol	O=c1[nH]cc(F)c(=O)[nH]1 [5-fluoro-2,4(1H,3H)-pyrimidinedione]
150.9 ± 4.7 J/K/mol	153.9 ± 4.8 J/K/mol	156.8 ± 4.9 J/K/mol	159.8 ± 5 J/K/mol	162.8 ± 5 J/K/mol	165.8 ± 5.1 J/K/mol	168.6 ± 5.2 J/K/mol	170.3 ± 5.3 J/K/mol	172.7 ± 5.4 J/K/mol	177.5 ± 5.5 J/K/mol	O=c1[nH]cc(I)c(=O)[nH]1 [5-iodouracil]
139.4 ± 4.3 J/K/mol	141 ± 4.4 J/K/mol	141.2 ± 4.4 J/K/mol	140.8 ± 4.4 J/K/mol	141.3 ± 4.4 J/K/mol	144.7 ± 4.5 J/K/mol	144.9 ± 4.5 J/K/mol	145.1 ± 4.5 J/K/mol	146 ± 4.5 J/K/mol	147.9 ± 4.6 J/K/mol	O=c1cc(Cl)[nH]c(=O)[nH]1 [6-chlorouracil]
163 ± 5.3 J/K/mol	168.2 ± 5.4 J/K/mol	173.7 ± 5.6 J/K/mol	178.7 ± 5.7 J/K/mol	184.3 ± 5.8 J/K/mol	189.9 ± 6 J/K/mol	195.2 ± 6.1 J/K/mol	200 ± 6.2 J/K/mol	203.5 ± 6.3 J/K/mol	205.9 ± 6.4 J/K/mol	Cc1c[nH]c(=O)[nH]c1=O [thymine]
157 ± 5 J/K/mol	168.8 ± 5.3 J/K/mol	181.2 ± 5.7 J/K/mol	193 ± 6 J/K/mol	206.1 ± 6.4 J/K/mol	214.3 ± 6.6 J/K/mol	226.1 ± 7 J/K/mol	239.2 ± 7.4 J/K/mol	249 ± 7.7 J/K/mol	260.2 ± 8.1 J/K/mol	Cn1c(=O)cc[nH]c1=O [uracil, 3-methyl-]
